Test results as given in article PMC5063058, “Cephalosporins inhibit human metallo β-lactamase fold DNA repair nucleases SNM1A and SNM1B/apollo” (Chemical Communications (Cambridge, England), 2016).

Experiments:
[1] = real-time fluorescence nuclease assay (fluorescein/BHQ1 20-nt ssDNA); type: biochemical, Homo sapiens; settings: read-out: IC50 SNM1A ^a /μM
Text: (§1) real-time fluorescence nuclease assay (fluorescein/BHQ1 20-nt ssDNA) on SNM1B

SNM1A [2] = molecular target: T1, SNM1A (Homo sapiens, UniProt Q6PJP8); test: as above; type: biochemical
T1 construct: gene DCLRE1A; 5'-3' exonuclease with MBL and beta-CASP domains
T1 sequence (Q6PJP8 700-1040): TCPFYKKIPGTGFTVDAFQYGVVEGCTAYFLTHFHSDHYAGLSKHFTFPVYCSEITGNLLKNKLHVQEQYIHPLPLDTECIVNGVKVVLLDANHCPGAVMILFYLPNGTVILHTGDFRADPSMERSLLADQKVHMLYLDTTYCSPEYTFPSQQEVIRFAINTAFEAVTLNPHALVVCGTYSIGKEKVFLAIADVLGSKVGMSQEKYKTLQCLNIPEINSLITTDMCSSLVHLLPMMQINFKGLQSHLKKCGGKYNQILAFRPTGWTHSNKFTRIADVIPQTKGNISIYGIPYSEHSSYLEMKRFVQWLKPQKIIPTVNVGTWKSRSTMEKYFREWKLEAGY
Text: real-time fluorescence nuclease assay (fluorescein/BHQ1 20-nt ssDNA) on SNM1A

SNM1B = molecular target: T2, SNM1B (Homo sapiens, UniProt Q9H816); test: as above; type: biochemical
T2 construct: gene DCLRE1B; 5'-3' exonuclease with MBL and beta-CASP domains
T2 sequence (Q9H816 1-335): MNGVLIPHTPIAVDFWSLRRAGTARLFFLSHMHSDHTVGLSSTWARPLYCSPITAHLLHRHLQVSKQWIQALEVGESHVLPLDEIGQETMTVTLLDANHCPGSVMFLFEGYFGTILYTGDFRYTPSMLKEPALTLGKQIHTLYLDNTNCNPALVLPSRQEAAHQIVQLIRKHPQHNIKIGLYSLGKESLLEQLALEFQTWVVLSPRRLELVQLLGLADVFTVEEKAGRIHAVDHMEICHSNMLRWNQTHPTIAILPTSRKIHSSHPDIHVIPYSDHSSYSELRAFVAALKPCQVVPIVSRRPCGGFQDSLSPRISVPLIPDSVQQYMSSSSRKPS
Text: as §1

SNM1A [3] = molecular target: T1, SNM1A; test: quantitative 1H NMR binding assay

SMILES	IC50 [1] [µM]	IC50 (SNM1A [2]) [µM]	Kd (SNM1A [3]) [µM]	IC50 (SNM1B) [µM]
CC(=O)OCC1=C(C(=O)O)N2C(=O)[C@@H](N)[C@H]2SC1 [compound 1, 7-ACA]		7 ± 1		32 ± 10
CC(=O)OCC1=C(C(=O)O)N2C(=O)[C@@H](NC(=O)CCC[C@@H](N)C(=O)O)[C@H]2SC1 [compound 2, Cephalosporin C]		61 ± 27		> 500

Further lines, with some results ahead:

IC50 [1] [µM]	IC50 (SNM1A [2]) [µM]	Kd (SNM1A [3]) [µM]	SMILES	IC50 (SNM1B) [µM]
> 500	> 500		CC(C)(O/N=C(\C(=O)N[C@@H]1C(=O)N2C(C(=O)[O-])=C(C[n+]3ccccc3)CS[C@H]12)c1csc(N)n1)C(=O)O [Ceftazidime]	
	5 ± 2		CO/N=C(\C(=O)N[C@@H]1C(=O)N2C(C(=O)O)=C(COC(C)=O)CS[C@H]12)c1csc(N)n1 [compound 3, Cefotaxime]	129 ± 20
	4 ± 2	19 ± 4	CO/N=C(\C(=O)N[C@@H]1C(=O)N2C(C(=O)O)=C(CSc3nc(=O)c(=O)[nH]n3C)CS[C@H]12)c1csc(N)n1 [compound 4, Ceftriaxone]	40 ± 14
